Results published in patent publication US4608390A, “Lipoxygenase inhibiting compounds” (Abbott Laboratories, priority 1985, dated 1986).

Assays:
Type in all cases: biochemical
[1] = target: T1, 12-lipoxygenase (Homo sapiens, UniProt P18054); assay: 12-lipoxygenase inhibition (12-lipoxygenase obtained from human platelets); settings: for inhibition at 10 µM: read-out: % Inhibition at Indicated Concentration, 12-lipoxygenase, 10 μM; for inhibition at 100 µM: read-out: % Inhibition at Indicated Concentration, 12-lipoxygenase, 100 μM
T1 construct: 12-lipoxygenase obtained from human platelets; from tissue; host or cells: human platelets
T1 sequence (P18054 1-663): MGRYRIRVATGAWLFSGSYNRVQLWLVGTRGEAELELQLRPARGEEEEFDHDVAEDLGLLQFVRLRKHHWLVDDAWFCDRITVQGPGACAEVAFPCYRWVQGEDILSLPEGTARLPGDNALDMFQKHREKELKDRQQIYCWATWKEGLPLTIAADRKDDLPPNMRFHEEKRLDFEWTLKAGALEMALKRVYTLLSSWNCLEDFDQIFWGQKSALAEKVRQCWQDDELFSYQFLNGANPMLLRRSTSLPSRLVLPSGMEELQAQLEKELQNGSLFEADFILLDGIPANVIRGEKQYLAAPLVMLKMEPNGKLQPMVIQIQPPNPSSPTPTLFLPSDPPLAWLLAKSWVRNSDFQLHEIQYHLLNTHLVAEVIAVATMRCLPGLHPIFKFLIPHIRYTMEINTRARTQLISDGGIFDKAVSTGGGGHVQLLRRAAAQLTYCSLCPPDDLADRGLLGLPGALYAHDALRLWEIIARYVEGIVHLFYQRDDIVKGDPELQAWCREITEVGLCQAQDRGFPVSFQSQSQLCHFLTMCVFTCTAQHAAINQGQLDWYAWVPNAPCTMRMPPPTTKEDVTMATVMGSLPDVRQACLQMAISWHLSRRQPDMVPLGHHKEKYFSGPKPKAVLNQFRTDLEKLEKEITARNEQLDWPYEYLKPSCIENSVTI
Method: (§1) The compounds of this invention are potent inhibitors of 5-, 12- and 15-lipoxygenase. An assay to determine 5-lipoxygenase activity was performed in incubations containing various concentrations of the test compound and the 20,000×G supernatant from 7.5×10^6 homogenized RBL-1 cells. Reactions were initiated by the addition of radiolabeled arachidonic acid and terminated by acidification and ether extraction. Reaction products were separated from nonconverted substrate by thin layer chromatography and measured by liquid scintillatiton spectroscopy. Inhibition of 5-lipoxygenase activity was calculated as the ratio of the amounts of product formed in the presence and absence of inhibitor.
(§2) The inhibitory activities of the compounds of this invention against 12- and 15-lipoxygenase can be determined in the foregoing assay in which 12-lipoxygenase obtained from human platelets, or 15-lipoxygenase obtained from soybean, is substituted for the 5-lipoxygenase-containing cell supernatant fraction.

[2] = target: T2, 15-lipoxygenase (Glycine max, UniProt P08170); assay: 15-lipoxygenase inhibition (15-lipoxygenase obtained from soybean); settings: for inhibition at 10 µM: read-out: % Inhibition at Indicated Concentration, 15-lipoxygenase, 10 μM; for inhibition at 100 µM: read-out: % Inhibition at Indicated Concentration, 15-lipoxygenase, 100 μM
T2 construct: 15-lipoxygenase obtained from soybean; from tissue; host or cells: soybean
T2 sequence (P08170 1-839): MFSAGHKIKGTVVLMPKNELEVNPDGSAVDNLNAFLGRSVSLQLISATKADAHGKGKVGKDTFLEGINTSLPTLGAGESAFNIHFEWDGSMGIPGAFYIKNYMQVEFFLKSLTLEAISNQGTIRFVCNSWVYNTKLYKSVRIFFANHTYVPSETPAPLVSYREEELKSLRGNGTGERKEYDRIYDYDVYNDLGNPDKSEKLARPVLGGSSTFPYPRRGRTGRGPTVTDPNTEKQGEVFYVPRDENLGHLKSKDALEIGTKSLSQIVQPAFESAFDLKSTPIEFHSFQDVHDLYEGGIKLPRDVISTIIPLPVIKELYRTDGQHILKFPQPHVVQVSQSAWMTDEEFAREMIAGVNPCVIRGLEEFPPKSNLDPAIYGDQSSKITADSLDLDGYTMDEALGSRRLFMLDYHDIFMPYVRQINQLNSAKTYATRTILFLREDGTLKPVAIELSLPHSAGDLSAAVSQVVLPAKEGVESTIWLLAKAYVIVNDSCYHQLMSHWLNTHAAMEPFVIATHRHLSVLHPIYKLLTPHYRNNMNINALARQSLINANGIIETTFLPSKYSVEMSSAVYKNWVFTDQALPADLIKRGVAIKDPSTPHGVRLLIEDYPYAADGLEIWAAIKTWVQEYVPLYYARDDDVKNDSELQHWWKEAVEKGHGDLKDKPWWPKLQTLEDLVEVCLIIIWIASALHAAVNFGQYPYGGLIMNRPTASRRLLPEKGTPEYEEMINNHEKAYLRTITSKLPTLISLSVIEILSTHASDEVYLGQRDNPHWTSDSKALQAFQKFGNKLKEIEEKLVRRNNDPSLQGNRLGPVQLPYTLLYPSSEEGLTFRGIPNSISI
Method: as §1, §2

[3] = target: T3, 5-lipoxygenase (Rattus norvegicus, UniProt P12527); assay: 5-Lipoxygenase IC50 determination (20,000×G supernatant of homogenized RBL-1 cells, radiolabeled arachidonic acid); settings: RBL-1 cell 20,000×G supernatant
T3 construct: 20,000×G supernatant from 7.5×10^6 homogenized RBL-1 cells; endogenous in cells; host or cells: RBL-1 cells (20,000xG supernatant of homogenate)
T3 sequence (P12527 1-673): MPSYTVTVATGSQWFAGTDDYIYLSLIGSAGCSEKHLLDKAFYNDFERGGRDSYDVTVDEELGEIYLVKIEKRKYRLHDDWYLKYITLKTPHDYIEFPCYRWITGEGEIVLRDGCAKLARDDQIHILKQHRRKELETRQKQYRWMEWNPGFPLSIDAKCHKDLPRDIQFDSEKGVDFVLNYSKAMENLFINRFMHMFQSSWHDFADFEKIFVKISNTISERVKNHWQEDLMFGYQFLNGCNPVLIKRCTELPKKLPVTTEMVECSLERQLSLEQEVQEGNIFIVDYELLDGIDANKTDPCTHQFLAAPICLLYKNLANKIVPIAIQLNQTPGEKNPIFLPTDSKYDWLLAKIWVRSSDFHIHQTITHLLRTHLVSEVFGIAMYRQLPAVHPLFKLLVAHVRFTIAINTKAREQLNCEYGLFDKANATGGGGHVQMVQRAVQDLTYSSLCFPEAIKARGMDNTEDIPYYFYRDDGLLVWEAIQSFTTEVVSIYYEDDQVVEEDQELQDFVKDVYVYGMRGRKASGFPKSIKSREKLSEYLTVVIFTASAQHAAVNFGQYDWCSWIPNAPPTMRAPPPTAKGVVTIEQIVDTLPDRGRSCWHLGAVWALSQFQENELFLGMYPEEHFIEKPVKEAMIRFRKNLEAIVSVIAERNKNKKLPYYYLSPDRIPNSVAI
Method: Reactions were initiated by the addition of radiolabeled arachidonic acid and terminated by acidification and ether extraction. Reaction products were separated from nonconverted substrate by thin layer chromatography and measured by liquid scintillatiton spectroscopy. Inhibition of 5-lipoxygenase activity was calculated as the ratio of the amounts of product formed in the presence and absence of inhibitor. […]

Row | Structure (SMILES) | inhibition at 10 µM [1] [%] | inhibition at 100 µM [1] [%] | inhibition at 10 µM [2] [%] | inhibition at 100 µM [2] [%] | IC50 [3] [nM]
1 | Cc1ccc2ccc(CCC(=O)NO)cc2c1 [Example 19, 3-(7-methyl-2-napthalene)propiohydroxamic acid] | 82 | 99 | 19 | 33 | 2900
2 | CC(=Cc1ccc2ccccc2c1)C(=O)NO [Example 6, 2-methyl-3-(2-naphthyl)acrylohydroxamic acid] |  |  | 45 | 100 | 
3 | O=C(C=Cc1ccc2ccccc2c1)N(O)c1ccccc1 [Example 5, N-phenyl 3-(2-naphthyl)acrylohydroxamic acid] | 82 |  | 22 | 30 | 200
4 | O=C(C=Cc1ccc2ccccc2c1)NO [Example 1, 3-(2-naphthyl)acrylohydroxamic acid] | 92 | 100 | 2 | 19 | 
5 | CC(C)N(O)C(=O)C=Cc1ccc2ccccc2c1 [Example 3, N-isopropyl 3-(2-naphthyl)acrylohydroxamic acid] | 75 | 84 | 31 | 63 | 150
6 | O=C(CCC/C=C\c1ccc2ccccc2c1)NO [Example 17, Z-6-(2-naphthyl)hex-5-enohydroxamic acid] |  |  |  |  | 1600
7 | CN(O)C(=O)C=Cc1ccc2ccccc2c1 [Example 2, N-methyl 3-(2-naphthyl)acrylohydroxamic acid] | 88 |  | 43 | 83 | 260
8 | CC(=Cc1ccc2ccccc2c1)C(=O)N(C)O [Example 7, 2,N-dimethyl-3-(2-naphthyl)acrylohydroxamic acid] |  |  | 37 | 88 | 
9 | O=C(CCc1ccc2ccccc2c1)NO [Example 18, 3-(2-naphthyl)propiohydroxamic acid] |  |  | 12 | 31 | 9700
10 | CN(O)C(=O)C(=Cc1ccc2ccccc2c1)c1ccccc1 [Example 8, N-methyl-3-(2-naphthyl)-2-phenyl acrylohydroxamic acid] |  |  | 38 | 62 | 
11 | CN(O)C(=O)C(=Cc1ccc2ccccc2c1)c1ccc(Cl)cc1 [Example 10, N-methyl-3-(2-naphthyl)-2-(4-chlorophenyl)acrylohydroxamic acid] | 98 |  |  |  | 
12 | CCCCCC=Cc1ccc2ccc(C=CC(=O)N(C)O)cc2c1 [Example 14, N-methyl-3-[7-(1-heptenyl)-2-naphthyl]acrylohydroxamic acid] | 93 | 98 | 59 | 65 | 510
13 | CN(O)C(=O)C=Cc1cc2ccccc2cc1[N+](=O)[O-] [Example 13, N-methyl-3-(3-nitro-2-naphthyl)acrylohydroxamic acid] | 81 | 97 | 19 | 49 | 
14 | O=C(C=Cc1ccc2ccccc2c1)N(O)C1CCCCC1 [Example 4, N-cyclohexyl 3-(2-naphthyl)acrylohydroxamic acid] | 66 |  | 43 | 83 | 260
15 | CC(=CC(=O)N(C)O)c1ccc2ccccc2c1 [Example 12, 3,N-dimethyl-3-(2-naphthyl)acrylohydroxamic acid] |  |  | 37 | 88 | 
16 | CN(O)C(=O)C=Cc1cccc2ccccc12 [Example 15, N-methyl-3-(1-naphthyl)acrylohydroxamic acid] | 82 | 100 | 29 | 88 | 200
17 | CN(O)C(=O)C=Cc1ccc([N+](=O)[O-])c2ccccc12 [Example 16, N-methyl-3-(4-nitro-1-naphthyl)acrylohydroxamic acid] |  |  |  |  | 130
